Test results published in patent US20120108667A1, “HYDROXY CERAMIDES AND ANALOGS THEREOF AND THEIR USE FOR PREVENTING OR TREATING CANCER” (priority 2010, published 2012).
“And” between values parts separate entries of the source, which are not always exact repeats. Equal values may be shown once. Read-outs that look alike come from different tables or passages of the source.

Columns and labels:
MCF7 cells [1] = experiment: LC-MS/MS cellular levels of exogenously added compounds in MCF7 cells; type: cell-based, human; conditions: for cellular accumulation: MCF7 cells (Example 6); for cellular level of the analog, time course / cellular level of the analog, concentration dependent / cellular uptake, early level: MCF7 cells; for cellular level of the analog, time course / cellular uptake, early level: 10 μM; for cellular level of the analog, time course: up to 24 h; for cellular level of the analog, concentration dependent: 24 h; for cellular uptake, early level: up to ~1 h
Protocol: (§1) MCF7 cells (breast adenocarcinoma, pleural effusion) were purchased from American type Culture Collection (ATCC, Rockville, Md., USA) and grown in RPMI 1640 media (Life Technologies, Inc) supplemented with 10% fetal calf serum (FCS, Summit Biotechnology, CO, USA) and maintained under standard incubator conditions (humidified atmosphere 95% air, 5% CO2, 37° C.). A parallel set of cells was used to determine cell proliferation and to prepare lipid extracts for MS analysis.
(§2) Advanced analyses were performed on a Thermo Finnigan TSQ 7000, triple-stage quadrupole mass spectrometer operating in a Multiple Reaction Monitoring (MRM) positive ionization mode as described (J. Bielawski, et al., Methods 39 (2006), p. 82; J. Bielawski, et al., Methods Mol. Biol. 579 (2009), p. 443). Quantitative analysis of the cellular level of 2′-OH—C6-Cers/dhCers and C6-Cer/dhCer was based on the calibration curves generated by spiking an artificial matrix with known amounts of target standards and an equal amount of the internal standard (IS). The target analyte to IS peak area ratios from the samples were similarly normalized to their respective IS and compared to the calibration curves using a linear regression model. Final results were expressed as the level of the particular SPLs/phospholipids (Pi) determined from the Bligh & Dyer lipid extract and expressed as SPLs/Pi (pmol/nmol).

dhCer desaturase = biological target: T1, dhCer desaturase (Homo sapiens, UniProt O15121); experiment: Conversion of C6-dhCer analogs to their unsaturated analogs in MCF7 cells; type: cell-based; conditions: 24 h treatment
T1 construct: endogenous in cells; host or cells: MCF7
T1 sequence (O15121 1-323): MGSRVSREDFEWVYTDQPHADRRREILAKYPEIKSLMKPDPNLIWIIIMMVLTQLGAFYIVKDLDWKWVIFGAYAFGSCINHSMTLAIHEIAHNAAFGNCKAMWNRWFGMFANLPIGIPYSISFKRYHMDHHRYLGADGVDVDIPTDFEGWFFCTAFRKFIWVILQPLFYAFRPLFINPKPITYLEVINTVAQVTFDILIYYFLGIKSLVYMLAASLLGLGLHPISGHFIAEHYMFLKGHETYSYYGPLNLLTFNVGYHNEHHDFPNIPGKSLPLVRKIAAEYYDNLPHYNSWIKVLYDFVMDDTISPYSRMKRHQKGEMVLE
Protocol: as §2

[2] = system: endogenous SPLs in MCF7 cells; experiment: LC-MS/MS analysis of endogenous SPLs in treated MCF7 cells; type: cell-based, human; conditions: for elevation of cellular dhCer: 40 μM treatment
Protocol: as §1, §2

MCF7 cells [3] = experiment: Cell proliferation of MCF7 cells (cell counts, Trypan blue, 24 h); type: cell-based, human; conditions: for IC50: read-out: IC50, MCF7 cell growth inhibition
Protocol: as §1
MCF7 cells were seeded at a density of ˜50% (corresponding to 1×10^6 cells) in 10 ml of 10% FCS and, after an overnight incubation, were treated with the compounds at (0-50 μM) in ethanol (<0.1%) and the changes in cell numbers after 24 h were determined and expressed as a percentage of the untreated controls. Briefly, media were removed, cells were washed twice with PBS, detached using 1% Trypsin and centrifuged at 800 rpm. Cell pellets were resuspended in PBS and Trypan blue (Sigma Chemicals, St. Louis, Mo., USA) was added (1:1 dilution). Under a light microscope, the percentage of unstained and stained cells was assessed.

HL60 leukemia cells = conditions: previously reported; cited from earlier work
[4] = 10 μM, time-dependent experiment, data not shown

## CCCCCCCCCCCCC/C=C/[C@@H](O)[C@H](CO)NC(=O)[C@@H](O)CCCC [LCL367, (2S,3R,2′S,4E)-2′-Hydroxy-C6-ceramide]
MCF7 cells [1]
  cellular accumulation: higher cellular accumulation
  cellular level of the analog, time course: elevated up to 2.5 h followed by a small decrease at 5 h and plateau to 24 h
  cellular level of the analog, concentration dependent: highest level

## CCCCCCCCCCCCCCC[C@@H](O)[C@H](CO)NC(=O)[C@@H](O)CCCC [LCL466, (2S,3R,2′S)-2′-Hydroxy-C6-dihydroceramide]
dhCer desaturase
  conversion to the corresponding unsaturated analog: up to 12%
MCF7 cells [1]
  cellular level of the analog, time course: elevated up to 5 h reaching the level of C6-dhCer and remaining constant up to 24 h
[2]; 10 μM
  effect on Cer species, time dependent: elevated all Cer species
[2]; 10 μM, at 24 h
  cellular Cers level, time dependent: the same as for 5 h treatment
  cellular dhCers level, time dependent: the same as for 5 h treatment
[2]; 10 μM, data not shown
  effect on dhCer species, time dependent: elevated all dhCer species
[2]; 10 μM, up to 5 h
  cellular Cers level, time dependent: 200%
  cellular dhCers level, time dependent: 200%
[2]; 24 h
  elevation of cellular dhCer: ~19 fold
  cellular Sph level, concentration dependent: elevation of cellular Sph
[2]; 40 μM, 24 h
  increase of cellular dhSph: ~16 fold
[2]; 24 h, results not shown
  elevation of dhC16-Cer (C16-dhCer): up to 25 fold
[2]; MCF7 cells
  C16-Cer/C16-dhCer fold ratio: 50/25
  effectiveness as inducer of cellular dhCers, Cers, dhSph and Sph: three time more effective than C6-dhCer
MCF7 cells [3]; listed as (2′S)-2′-OH—C6-dhCer
  IC50: ~12 µM and 12 µM

## CCCCCCCCCCCCCCC[C@@H](O)[C@H](CO)NC(=O)[C@H](O)CCCC [LCL467, (2S,3R,2′R)-2′-Hydroxy-C6-dihydroceramide]
dhCer desaturase
  conversion to the corresponding unsaturated analog: up to 5%
MCF7 cells [1]
  cellular level of the analog, time course: showed the lowest level, remaining in a plateau between 2.5-24 h
[2]; 10 μM, 24 h, concentration-dependent experiment
  endogenous Cer (total) level: ~150%
[2]; 10 μM, at 24 h
  cellular Cers level, time dependent: ~140%
  cellular dhCers level, time dependent: remained unchanged
[2]; [4]
  decrease of long chain dhCers: 10-25%
  increase of very long chain dhCers: 20-30%
[2]; 10 μM, up to 5 h
  cellular Cers level, time dependent: did not affect
  cellular dhCers level, time dependent: did not affect
[2]; 1-5 μM, 24 h
  decrease of C16-Cer: up to 60%
[2]; 24 h
  cellular Sph level, concentration dependent: ~80%
  effect on cellular dhSph: did not affect
[2]; 24 h, results not shown
  C14-dhCer level (decrease to): 25 % control
  elevation of dhC16-Cer (C16-dhCer): did not elevate
[2]; MCF7 cells
  effectiveness as inducer of cellular dhCers, Cers, dhSph and Sph: not effective
[2]; up to 5 μM, 24 h
  effect on cellular Cer: did not affect
MCF7 cells [3]; 20 μM
  effect of 20 μM treatment on cells: total cell death
MCF7 cells [3]; listed as (2′R)-2′-OH—C6-dhCer
  IC50: ~8 µM and 8 µM

## CCCCCCCCCCCCC/C=C/[C@@H](O)[C@H](CO)NC(=O)[C@H](C)O [(2′S)-2′-OH—C3-Cer]
HL60 leukemia cells
  potency relative to the other isomer: much more potent then its (2′R)-isomer

## CCCCCCCCCCCCC/C=C/[C@@H](O)[C@H](CO)NC(=O)[C@H](O)CCCC [LCL366, (2S,3R,2′R,4E)-2′-Hydroxy-C6-ceramide]
MCF7 cells [1]
  cellular accumulation: low cellular accumulation
  cellular level of the analog, time course: progressively decreased to the lowest level among all tested analogs at 24 h
  cellular uptake, early level: highest levels
  cellular level of the analog, concentration dependent: lowest level

## CCCCCCCCCCCCC/C=C/[C@@H](O)[C@H](CO)NC(=O)CCCCC [C6-Cer]
MCF7 cells [1]
  cellular level of the analog, time course: progressively increased up to 5 h followed by decrease at 24 h
  cellular uptake, early level: highest levels
[2]; 10 μM, at 24 h
  cellular Cers level, time dependent: 350%
[2]; 10 μM, up to 5 h
  cellular Cers level, time dependent: 500%
[2]; 20 μM treatment, 24 h
  increase of C14-Cer: ~40 fold
  increase of C16-Cer: ~20 fold
  increase of C18-Cer: ~80 fold
  increase of C24-Cer: ~0.2 fold
  increase of C24:1-Cer: fivefold
[2]; 20 μM, 24 h
  cellular S1P level: 800%
  endogenous Cer (total) level: up to 900%
  endogenous Sph level: ≤ 600%
[2]; 24 h
  concentration from which all Cer species are elevated: ≥ 5 µM
[2]; MCF7 cells
  influence on levels of cellular Cers/dhCers: significantly increased the levels of their cellular long chain homologs
  metabolism/conversion to cellular long chain 2′-OH homologs (2′-OHCer analogs): not converted to the cellular 2′-OHCer analogs
MCF7 cells [3]; listed as C6-ceramide
  IC50: 12 µM
MCF7 cells [3]
  IC50: ~12 µM

## CCCCCCCCCCCCCCC[C@@H](O)[C@H](CO)NC(=O)CCCCC [C6-dhCer]
dhCer desaturase
  conversion to the corresponding unsaturated analog: 42%
MCF7 cells [1]
  cellular level of the analog, time course: followed the curve of C6-Cer, however at a lower rate
[2]; 10 μM
  effect on Cer species, time dependent: elevated all Cer species
  effect on cellular Sph, time dependent: slightly increased
[2]; 10 μM, at 24 h
  cellular Cers level, time dependent: 280%
  cellular dhCers level, time dependent: decreased to almost control level
[2]; 10 μM, data not shown
  effect on dhCer species, time dependent: elevated all dhCer species
[2]; 10 μM, up to 5 h
  cellular Cers level, time dependent: 310%
  cellular dhCers level, time dependent: 750%
[2]; 24 h
  elevation of cellular dhCer: ~7 fold
[2]; 40 μM, 24 h
  endogenous Cer level: 550%
  increase of cellular dhSph: ~5 fold
[2]; 24 h, results not shown
  elevation of dhC16-Cer (C16-dhCer): ≤ 13 fold
[2]; MCF7 cells
  C16-Cer/C16-dhCer fold ratio: 50/13
  influence on levels of cellular Cers/dhCers: significantly increased the levels of their cellular long chain homologs
[2]; at a low concentration, 24 h
  cellular Sph level (decrease to): ~70%
[2]; up to 10 μM, 24 h
  effect on cellular dhCers: did not induce elevation of cellular dhCers
MCF7 cells [3]
  concentration at which an inhibitory effect on cell growth is caused: higher than 10 μM
  IC50: ~38 µM and 38 µM
